One experiment concerns PANC‐1 cells. Kind of experiment: Colony-formation and CCK-8 proliferation, PANC-1. Type of experiment: cell-based, Human. Conditions: vs Vehicle, p < 0.01, Figure S4E,F. The procedure:
(§1) Cell proliferation was determined by Cell Counting Kit‐8 (CCK‐8, Yeasen) and EdU Cell Proliferation Assay kit (Ribobio, Guangzhou, China). Colony formation was observed by staining with 0.1% crystal violet (Sangon Biotechnologies Inc., Shanghai, China). Cell migration and invasion were assessed using […] pore Transwell chambers with (for invasion assay) or without Matrigel (for migration assay). For migration assay, 5 × 10^4 SW1990 or 3 × 10^4 PANC‐1 cells were seeded into the upper chamber of the Transwell apparatus (Corning, USA) in serum‐free medium, and the medium supplemented with 10% FBS was added to the bottom chamber. For invasion assay, 10 × 10^4 SW1990 or 6 × 10^4 PANC‐1 cells were seeded into the upper Corning BioCoat Matrigel invasion chamber. After 24 h, the cells on the upper surface that had not passed through the polycarbonate filter were removed using a moistened cotton swab; the cells having migrated to the lower membrane surface were fixed in 100% methanol for 10 min, stained with 0.4% crystal violet for 15 min, and counted under a microscope (Nikon, Japan) at ×100 magnification. The cells were manually counted using Image J software. Three independent experiments were performed.

Another experiment has as its system SW1990 cells. Description: Transwell migration and invasion, SW1990. It is filed as cell-based, Human. Conditions: 24 h, vs Vehicle, p < 0.01, Figure 5H. Here is the method: as §1
The subject of another experiment is H3K4me1. Description: Western blot and IHC of metastatic foci from treated mice, H3K4me1. It is filed as in vivo, Human (xenograft in BALB/c nude mice). Conditions: control vs GSK-LSD1-treated lung metastasis tissues, Figure 5L,M. On the technique in general: A western blot detects proteins with antibodies after separation by electrophoresis.
For a further experiment, the system named is KLLN. Kind of experiment: Western blot and IHC of metastatic foci from treated mice, KLLN. It is filed as in vivo, Human (xenograft in BALB/c nude mice). The conditions noted are these: control vs GSK-LSD1-treated lung metastasis tissues, Figure 5L,M.

The structures appear in SMILES notation.

Here are results for one molecule from PMC10787067, “EBF2 Links KMT2D‐Mediated H3K4me1 to Suppress Pancreatic Cancer Progression via Upregulating KLLN” (Advanced Science, 2023).

Take `c1ccc([C@@H]2C[C@H]2NC2CCNCC2)cc1` [GSK‐LSD1]: the proliferation result in the experiment on PANC‐1 cells is reported as “significantly inhibited”. For the same molecule, the invasion result in the experiment with SW1990 cells (Transwell with Matrigel) is given as “significantly inhibited”. In addition, the migration result in the experiment on SW1990 cells (Transwell without Matrigel) is recorded as “significantly inhibited”. For the same molecule, the “H3K4me1 in metastatic foci” value with H3K4me1 is “upregulation”. Also, the “KLLN in metastatic foci” value in the experiment with KLLN is “upregulation”.
